Molecular target: human angiotensin-converting enzyme 2 (ACE2) (Homo sapiens, UniProt Q9BYF1)
Test: biolayer interferometry
Assay type: binding

human angiotensin-converting enzyme 2 (ACE2), sequence (Q9BYF1 18-740): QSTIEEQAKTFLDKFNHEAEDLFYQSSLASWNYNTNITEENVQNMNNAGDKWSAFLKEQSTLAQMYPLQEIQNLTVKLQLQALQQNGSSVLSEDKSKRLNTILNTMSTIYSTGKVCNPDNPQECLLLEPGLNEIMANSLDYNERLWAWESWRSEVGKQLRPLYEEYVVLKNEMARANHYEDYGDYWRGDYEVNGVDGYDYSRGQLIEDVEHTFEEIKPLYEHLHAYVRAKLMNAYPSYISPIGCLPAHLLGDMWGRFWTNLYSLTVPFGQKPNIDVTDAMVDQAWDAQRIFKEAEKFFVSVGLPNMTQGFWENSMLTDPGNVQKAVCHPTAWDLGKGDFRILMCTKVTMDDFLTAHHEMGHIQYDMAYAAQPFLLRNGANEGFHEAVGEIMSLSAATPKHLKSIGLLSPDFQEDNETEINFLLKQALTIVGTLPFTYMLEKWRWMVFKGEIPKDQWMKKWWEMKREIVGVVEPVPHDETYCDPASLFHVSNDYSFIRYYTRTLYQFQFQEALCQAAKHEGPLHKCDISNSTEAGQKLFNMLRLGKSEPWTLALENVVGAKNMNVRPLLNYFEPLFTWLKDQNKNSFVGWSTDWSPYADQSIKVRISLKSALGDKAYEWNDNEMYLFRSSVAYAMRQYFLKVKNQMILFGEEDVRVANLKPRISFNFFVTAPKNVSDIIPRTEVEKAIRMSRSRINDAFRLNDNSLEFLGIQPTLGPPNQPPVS

C=CC1=C(C)c2cc3[nH]c(cc4nc(cc5[nH]c(cc1n2)c(C)c5CCC(=O)O)C(CCC(=O)O)=C4C)c(C)c3C=C [protoporphyrin IX]
Kd: 39 µM
